The conditions of experiment [1]: background statement, cited from earlier work; for umami taste: aspartic acid at concentrations comparable to MSG.
Experiment [2] can be described thus: Flavourist tasting: umami and salt intensity of solution B versus reference solution A. The conditions noted are these: scale -3 (much lower than base) to 3 (much higher), average of 4 flavourists. It is filed as in vivo. From the text:
The samples were tasted by a small group of flavourists (2 male, 2 female, aged between 30 and 60). The intensity of the umami and salt taste of solution B was compared with that of the reference (solution A) and rated according to the following intensity scale: […]

Experiment [3] can be described thus: Flavourist comparison of test bouillon with reference bouillon. It counts as in vivo. The conditions noted are these: 200 ppm in bouillon; 4 flavourists. The protocol: A bouillon mix was prepared from 155.0 g of sodium chloride, 157.0 g of dextrose monohydrate (ex Tapioca), 0.2 g of celery oleoresin, 0.3 g of oleoresin turmeric Vegex, 0.2 g of oleoresin coriander seed, 444.8 g maltodextrin 5-8 DE, 40.0 g vegetable oil soya bean refined, 30.0 g yeast standard light, 4.0 g of onion powder, 4.0 g of garlic powder, 0.5 g of white pepper and 164.0 g of potato starch.
32 g of the well-mixed ingredients was added to 1 L of boiling water and stirred until completely dissolved.

Experiment [4] is described as follows: Flavourist tasting: enhancement effect on NaCl, MSG and ribonucleotides. It counts as in vivo. The conditions noted are these: effect marked between 0 and 10. How it is done: Six solutions were prepared: • A a solution of 0.5% NaCl • B a solution of 0.5% NaCl and 0.03% MSG • C a solution of 0.5% NaCl and 0.015% ribonucleotides • D a solution of 0.5% NaCl and 10-50 ppm Example 1 compound • E a solution of 0.5% NaCl and 0.03% MSG and 10-50 ppm Example 1 compound • F a solution of 0.5% NaCl and 0.015% ribonucleotides and 10-50 ppm Example 1 compound The samples were tasted by a group of 5-10 flavourists aged between 30 and 60. The taste of solution D is compared with that of A to determine the enhancement effect of Example 1 compound on NaCl. Similarly, solution E is compared with solution B and solution F with solution C to determine the enhancement effect of Example 1 compound on MSG and ribonucleotides respectively. The effect is marked between 0 and 10, the greater the value the greater the effect.

Experiment [5] is described as follows: Flavourist comparison of test white sauce with reference white sauce. The conditions noted are these: 4 flavourists. It is filed as in vivo. How it is done: A white sauce mix was prepared from 380 g of modified starch Prejel, 200 g of whey powder Esprion 300, 200 g of fat powder (ex DMV), 115 g of sodium chloride, 85.3 g of maltodextrin 14, 3 g of onion powder, 0.2 g of curcuma extract powder (ex turmeric), 1.5 g of white pepper and 15 g of probase high impact.
80 g of the well-mixed ingredients was added to 1 L of boiling water and stirred well.

Experiment [6] can be described thus: Flavourist comparison of test Béchamel sauce with cheese with reference sauce. It counts as in vivo. The conditions noted are these: 4 flavourists. How it is done: A Béchamel sauce with cheese was prepared from 70 g of butter, 50 g of flower, 1000 g of milk, 5 g of sodium chloride, 0.3 g of MSG, 0.15 g of nutmeg powder, 0.25 g of black pepper and 80 g of cheese powder. A blanc roux was prepared from the butter and flower before adding the other ingredients.

The mark [7] stands for this setting: 20 ppm in 0.5% NaCl and 0.03% MSG.
The mark [8] stands for this setting: 10 ppm in 0.5% NaCl and 0.03% MSG.

As to `[Cl-].[K+]` [Potassium chloride], the “taste of salts compared with sodium chloride” value in experiment [1] is given as “somewhat salty but clearly more bitter”.

With `[Cl][Pb][Cl]` [Lead chloride], the “taste of salts compared with sodium chloride” value in experiment [1] is on record as “tasting sweet”.

Turning to `CC(CC(N)C(=O)O)C(=O)O` (centres unmarked) [2-amino-4-methylpentanedioic acid, 2-amino-4-methylpentanedioic Acid], in experiment [2] (setting [7]), the “Intensity Taste Salt (NaCl)” value worked out at 1.00 and the “Intensity Taste Umami” value is given as 1.25.

Consider `N[C@@H](CC(=O)O)C(=O)O` [aspartic acid], for which, in experiment [1], the umami taste result was “hardly any umami taste”.

For the compound `NC(CC(O)C(=O)O)C(=O)O` (centres unmarked) [4-hydroxyglutamic acid, 4-hydroxyglutamic Acid], the “taste of test bouillon compared with reference bouillon” value in experiment [3] was “had an enhanced body of salt and was more salivating and more savoury-lingering than the reference bouillon”. Further, the “NaCl Taste” value in experiment [4] (50 ppm in 0.5% NaCl (solution D versus A, reference 0.0)) amounted to 1.7. Besides, the Ribo taste in experiment [4] (50 ppm in 0.5% NaCl and 0.015% ribonucleotides (solution F versus C, reference 5.0)) was 7.0. Besides, in experiment [4] (50 ppm in 0.5% NaCl and 0.03% MSG (solution E versus B, reference 5.0)), the MSG taste is reported as 5.7. In addition, in experiment [2] (setting [8]), the “Intensity Taste Salt (NaCl)” value is recorded as 0.50 and the “Intensity Taste Umami” value was determined as 0.50. Moreover, in experiment [5] (300 ppm in white sauce), the “taste of test white sauce compared with reference white sauce” value is “had an enhanced body of salt and was more salivating and umami-like than the reference white sauce”. Further, the “taste of test Béchamel sauce with cheese compared with reference” value in experiment [6] (400 ppm in Béchamel sauce with cheese) was “had more body, more mouthfullness and was creamier than the reference Béchamel sauce”.

On to `O=C([O-])[C@H](O)[C@@H](O)[C@H](O)[C@H](O)CO.[Na+]` [sodium gluconate], for which the “taste of salts compared with sodium chloride” value in experiment [1] is given as “hardly any taste”.

In the case of `CC(=O)[O-].[Na+]` [Sodium acetate], the “taste of salts compared with sodium chloride” value in experiment [1] was “hardly any taste”.

For the compound `N[C@@H](CCC(=O)O)C(=O)[O-].[Na+]` [MSG, monosodium glutamate], the umami taste entry in experiment [1] is “highly potent umami tastant”.

Consider `Cl.NC(CC(C(=O)O)c1ccccc1)C(=O)O` (centres unmarked) [2-amino-4-phenylpentanedioic acid, HCl, 2-amino-4-phenylpentanedioic Acid, HCl], for which, in experiment [2] (setting [8]), the “Intensity Taste Salt (NaCl)” value was determined as 0.67 and the “Intensity Taste Umami” value is listed as 0.00.

Turning to `NC(CC(C(=O)O)C(=O)O)C(=O)O` (racemic) [gamma-carboxy-DL-glutamic acid, Gamma-Carboxy-DL-Glutamic Acid], the “taste of test bouillon compared with reference bouillon” value in experiment [3] is “more umami, slightly more bitter, had more an ionic effect and salivating aftertaste than the reference bouillon”. Besides, in experiment [4] (10 ppm in 0.5% NaCl (solution D versus A, reference 0.0)), the “NaCl Taste” value came to 2.0. Further, the Ribo taste in experiment [4] (10 ppm in 0.5% NaCl and 0.015% ribonucleotides (solution F versus C, reference 5.0)) was found to be 5.5. Further, the MSG taste in experiment [4] (10 ppm in 0.5% NaCl and 0.03% MSG (solution E versus B, reference 5.0)) came to 5.5. Further, in experiment [2] (setting [8]), the “Intensity Taste Salt (NaCl)” value stood at 0.67 and the “Intensity Taste Umami” value is 0.67. Besides, the “taste of test white sauce compared with reference white sauce” value in experiment [5] (250 ppm in white sauce) was “more umami, more metallic, fuller, more long-lasting and slightly more salivating than the reference white sauce”. The “taste of test Béchamel sauce with cheese compared with reference” value in experiment [6] (350 ppm in Béchamel sauce with cheese) is “more metallic, more ionic, more long-lasting and had more salivating effect than the reference Béchamel sauce”.

Source of the values: patent US20140272065A1, “ORGANIC COMPOUNDS” (Givaudan S.A., priority 2011, published 2014).
